Results: paper PMC3001719, “The heme sensing response regulator HssR in Staphylococcus aureus but not the homologous RR23 in Listeria monocytogenes modulates susceptibility to the antimicrobial peptide plectasin” (BMC Microbiology, 2010)
Values joined by “and” are separate entries in the source; they are usually repeats but may differ in a detail not shown here. Identical values can stand only once.

Tests used:
L. monocytogenes [1] = assay: Extracellular protein profile by SDS-PAGE; assay type: cell-based, Listeria monocytogenes; conditions: L. monocytogenes grown with or without plectasin overnight at 37°C in BHI; data not shown
Protocol: Prewarmed TSB and BHI (25 ml) in a 250 ml Erlenmeyer flask was inoculated with S. aureus strains and L. monocytogenes strains, respectively. These flasks were grown with and without plectasin at 37°C overnight (≈ 17 h) with shaking. The next morning, the exact absorbance at 600 nm of the cultures was measured, and 15 ml of culture was centrifuged to precipitate the cells (6 000 RPM; 7 min; 0°C). The supernatant was transferred to a 50 ml Blue cap bottle (placed in an ice/water bath), and the extracellular proteins were precipitated by adding one volume of ice-cold 96% EtOH and left in the refrigerator overnight for proteins to precipitate. Precipitated proteins were collected by centrifugation (11,000 RPM; 30 min; 0°C). Protein pellets were suspended in a volume of 50 mM Tris-HCl (pH 6.8) adjusted to the original absorbance of the overnight culture so that 15 ml of overnight culture with absorbance at 600 nm of 5.0 was suspended in 0.8 ml of 50 mM Tris-HCl (pH 6.8). A sample of 15 μl of the protein extracts was analysed on NuPAGE® 4-12% Bis-Tris gels (Invitrogen) using the X Cell SureLock® Mini-Cell system (Invitrogen) as recommended by the supplier. The gels were Coomassie stained using GelCode® Blue Stain Reagent (Pierce).

[2] = tested on: S. aureus 8325-4 wild type; assay: Growth in TSB with plectasin and/or hemin; assay type: cell-based, Staphylococcus aureus; conditions: plectasin 35 μg/ml, 37°C, absorbance at 600 nm
Protocol: (§1) Overnight cultures of S. aureus were diluted to an absorbance at 600 nm of 0.05 in TSB with and without 4 μM hemin and/or 35 μg/ml plectasin and grown at 37°C. Measurements of the absorbance were made every 30 minutes.

[3] = tested on: S. aureus 8325-4 hssR mutant; assay: Growth in TSB with plectasin and/or hemin; assay type: cell-based, Staphylococcus aureus; conditions: plectasin 35 μg/ml, 37°C, absorbance at 600 nm, transduced 8325-4 hssR mutant
Protocol: as §1

[4] = tested on: S. aureus 8325-4 wild type; assay: In vitro bacterial killing kinetics; assay type: cell-based, Staphylococcus aureus; conditions: plectasin 1× MIC, TSB, 37°C, CFU after 1, 3 and 5 hours
Protocol: (§2) Overnight cultures of S. aureus wild type […], 8325-4 hssR::bursa and 8325-4 hssR::bursa/pRMC2-hssRS were diluted 1000 fold in TSB and grown 2 hours at 37°C. Samples were taken to time T = 0 and plated for CFU determination. Plectasin (1× MIC) was added, and samples were withdrawn after 1,3 and 5 hours growth at 37°C and plated for CFU determination.

[5] = tested on: S. aureus 8325-4 hssR::bursa; assay: In vitro bacterial killing kinetics; assay type: cell-based, Staphylococcus aureus; conditions: plectasin 1× MIC, TSB, 37°C, CFU after 1, 3 and 5 hours; 8325-4 hssR::bursa mutant
Protocol: as §2

[6] = tested on: mice, human keratinocytes and erythrocytes; conditions: in mice and on human keratinocytes and erythrocytes; cited from earlier work
Description: Recently, the antimicrobial peptide, plectasin isolated from a saprophytic fungus, was described.

L. monocytogenes [7] = assay: MIC of plectasin stated in the text; assay type: cell-based, Listeria monocytogenes; conditions: difference in MIC values between the strains
S. aureus hssR mutants = assay: MIC of hssR mutants compared to wild type; assay type: cell-based, Staphylococcus aureus; conditions: ratio of MIC, S. aureus hssR response regulator mutants vs wild type, regardless of the genetic background
Protocol: Minimal inhibitory concentrations (MIC) of plectasin, eurocin, protamine, novicidin, and novispirin G10 were determined using a microbroth dilution method. Colonies from a BHI plate incubated overnight at 37 °C were suspended in MHB pH 7.4 to an absorbance at 546 nm of 0.11-0.12 at 546 nm (approx. 1.0 × 10^8 CFU/ml) and diluted in MHB to a concentration of 5.0 × 10^5 CFU/ml. Ninety μl of bacterial suspension was incubated with 10 μl of peptide solution in polypropylene 96-well plates (Nunc, 442587) for 18-24 h at 37°C. The peptide solutions were made fresh on the day of assay. The range of concentrations assayed were 0.25-256 μg/ml for plectasin and eurocin, 0.125-128 μg/ml for protamine and novispirin G10, and 0.031-32 μg/ml for novicidin. MIC was the lowest peptide concentration at which visual growth was inhibited.

L. monocytogenes [8] = assay: ATP leakage (intracellular and extracellular ATP, bioluminescence); assay type: cell-based, Listeria monocytogenes; conditions: L. monocytogenes, 500 μg/ml peptide, 50 mM HEPES pH 7.0 with 0.2% glucose, vs peptide dilution buffer
Protocol: L. monocytogenes and S. aureus were grown in TSB at 37°C. Bacteria were harvested (10 min at 3000 RPM) at mid-exponential phase (absorbance at 546 nm of 2.5 ± 0.2 and 1.0 ± 0.2 for S. aureus and L. monocytogenes, respectively), washed once in 50 mM potassium phosphate buffer pH 7.0 and once in 50 mM HEPES buffer pH 7.0. The pellet was resuspended in 50 mM HEPES pH 7.0 to a final absorbance at 546 nm of 10. Bacteria were stored on ice and used within 5 hours. […] ATP was determined using a bioluminescence kit (Sigma, FLAA-1KT) and a BioOrbit 1253 luminometer. Total ATP content was determined by rapidly permeabilising 20 μl cell suspension with 80 μl dimethyl sulfoxide. The cell suspension was diluted in 4.9 ml sterile water, and ATP content was determined in 100 μl of the preparation as described by the manufacturer. To determine the extracellular ATP concentration, the 20 μl cell suspension was mixed with 80 μl sterile water and analyzed as described above. Intracellular ATP concentrations were calculated by using the intracellular volumes of 0.85 and 1.7 μm^3 for S. aureus and L. monocytogenes, respectively. The number of cells in suspension was determined by plate spreading.

## CC[C@H](C)[C@@H]1NC(=O)[C@H](CO)NC(=O)[C@H](CCCCN)NC(=O)[C@@H]2CSSC[C@@H](C(=O)N[C@@H](Cc3ccc(O)cc3)C(=O)O)NC(=O)[C@H](CCCCN)NC(=O)[C@@H]3CSSC[C@H](NC(=O)[C@H](CCC(N)=O)NC(=O)[C@H](CCSC)NC(=O)[C@H](CC(=O)O)NC(=O)[C@H](CC(=O)O)NC(=O)[C@H](CCC(=O)O)NC(=O)[C@H](CC(=O)O)NC(=O)[C@H](Cc4c[nH]c5ccccc45)NC(=O)[C@@H]4CCCN4C(=O)CNC(=O)[C@H](CC(N)=O)NC(=O)[C@@H](NC(=O)CNC(=O)[C@H](Cc4ccccc4)NC(=O)CN)CSSC[C@H](NC(=O)[C@H](Cc4ccc(O)cc4)NC(=O)CNC(=O)CNC(=O)[C@H](CCCCN)NC(=O)[C@H](Cc4ccc(O)cc4)NC(=O)CNC(=O)[C@H](CCCCN)NC1=O)C(=O)N[C@@H](C)C(=O)N[C@@H](CCCCN)C(=O)NCC(=O)NCC(=O)N[C@@H](Cc1ccccc1)C(=O)N[C@@H](C(C)C)C(=O)N3)C(=O)N[C@@H](Cc1c[nH]cn1)C(=O)N[C@@H](CC(N)=O)C(=O)N[C@@H](Cc1c[nH]cn1)C(=O)N2 [plectasin]
L. monocytogenes [1]
  Abundance of extracellular proteins: no difference in the abundance of extracellular proteins
[2]
  Growth in the presence of plectasin: inhibited the growth
[3]
  Growth in the presence of plectasin: hardly affected the growth
[4]
  Kinetics of bacterial killing in vitro: killed rapidly
[5]
  Kinetics of bacterial killing in vitro: killed slower than the wild type
[6]
  Toxicity: very low toxicity
L. monocytogenes [7]
  Tolerance of L. monocytogenes compared to S. aureus: 4-8 fold
S. aureus hssR mutants
  Increased resistance of hssR mutants compared to the wild type: 2 to 4 fold and 2-4 fold
L. monocytogenes [8]
  ATP leakage (intracellular ATP concentration): remained at the same level as the controls
